Literature values, collected in US20210393559A1, “Compositions and Methods of Use of Beta-Hydroxy-Beta-methylbutyrate (HMB) for Improving Muscle Mass, Strength and Muscular Function Without Exercise” (Metabolic Technologies, LLC, priority 2020, published 2021).

What was measured:
[1] = molecular target: T1, 1-alpha, 25-Vitamin D hydroxylase (Homo sapiens, UniProt O15528); settings: human vascular smooth muscle
T1 sequence (O15528 1-508): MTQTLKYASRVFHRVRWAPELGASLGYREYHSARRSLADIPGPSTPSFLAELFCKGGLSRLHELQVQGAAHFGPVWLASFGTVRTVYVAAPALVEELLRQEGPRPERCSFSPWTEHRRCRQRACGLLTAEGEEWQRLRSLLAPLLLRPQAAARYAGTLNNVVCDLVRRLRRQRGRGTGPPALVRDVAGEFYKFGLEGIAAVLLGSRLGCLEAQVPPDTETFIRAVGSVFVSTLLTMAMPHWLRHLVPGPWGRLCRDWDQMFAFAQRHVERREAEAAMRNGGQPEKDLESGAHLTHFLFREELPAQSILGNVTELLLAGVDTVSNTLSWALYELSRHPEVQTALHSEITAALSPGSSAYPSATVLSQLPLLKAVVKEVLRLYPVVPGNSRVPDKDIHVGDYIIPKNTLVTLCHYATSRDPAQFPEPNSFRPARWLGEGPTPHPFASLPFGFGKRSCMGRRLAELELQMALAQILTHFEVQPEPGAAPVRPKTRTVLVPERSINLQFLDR

[2] = after HMB is fed
[3] = healthy young or old adults

Compound	Km [1] [ng/mL]	loss of HMB to urine [2]	side effects [3]
C=C1CC[C@H](O)C/C1=C/C=C1\CCC[C@]2(C)[C@@H]([C@H](C)CCCC(C)(C)O)CC[C@@H]12 [25OH-VitD3]	25		
β-hydroxy-β-methylbutyrate [HMB]		20-50%	no side effects
